From patent US7960549B2, “Solid forms of a chemokine receptor antagonist and methods of use thereof” (priority 2004, dated 2011)
Structures can show the parent of a compound that is named as a salt.

Assays:
Assay type in all cases: physicochemical
[1] = Crystallization of the Citrate Salt (Form A exposed to solvent systems under the conditions of Table 9): form(s) obtained
From the text: In other particular embodiments, solvents such as ethanol, methanol/heptane, MEK/water, n-propanol, isopropanol, isopropanol/water, acetonitrile/water, or methanol may be used to crystallize Form B. More particularly, Form B may be created by taking samples of Form A and exposing them to one of the solvent systems listed above. […] In each instance, Form A of the Citrate Salt is exposed to a solvent or solvent system under the particular conditions listed in Table 9 to generate the particular form(s) or amorphous Citrate Salt.

[2] = Thermal gravimetric analysis (TGA); conditions: for TGA weight loss of the transition / TGA weight loss transition, interpolated beginning temperature / TGA weight loss transition, temperature of maximum rate of weight loss: sample of the single form (Form H formed from Form E sample); for TGA weight loss transition, interpolated beginning temperature / TGA weight loss transition, temperature of maximum rate of weight loss: ±3° C.
Experimental: Measurements utilizing thermal gravimetric analysis (TGA) are carried out on a T.A. instruments TGAQ500 analyzer. Mass calibration is performed with 10 and 100 mg certified masses. Temperature calibration is performed with Alumel® and nickel standards (Curie points of respectively 154° C. and 354° C.). Samples are exposed to a constant nitrogen stream of 60 ml/min, and temperature ranges from room temperature to 350° C. at a 5° C./min rate. The quantity of product tested is between 2 and 13 mg. The sample is deposited in an open aluminum sample pan, which is itself placed in a platinum pan. The temperatures identified from TGA scans of a particular sample are accurate to within ±3° C. Simultaneous TGA and DSC measurements are carried out using a […] thermal analysis system produced by the […] corporation. A liquid nitrogen cooling system makes it possible to work at temperatures below 20° C. The emitted gases, upon sample heating, are carried by a transfer capillary tube to a Pfeiffer mass spectrometer, the capillary tube heated to 150° C. The mass spectrometer can analyze molecular fragments at <<m/e>> ratios between 1 and 200 uma. A sample with a mass between 1 and 27 mg is contained in an open concave aluminum sample pan (75 μL capacity) exposed to a nitrogen stream. The sample is heated at a rate of 1 or 5° C./min.

[3] = Differential scanning calorimetry (DSC)
Experimental: Differential scanning calorimetry (DSC) analyses are performed using a T.A Instruments Q1000 thermal analyser. Analyses are carried out using nitrogen purge gas flowing at an average rate of 50 ml/min. A mechanical compressor cools the system, and equilibrates the instruments being used at ambient temperature between analyses. […] Energy calibration is performed with a certified indium calibrator (melting enthalpy of 28.45 J/g), applying a heating rate of 5° C./min. The temperatures identified from DSC scans of a particular sample are accurate to within ±3° C. […] Modulated temperature differential scanning calorimetry (MTDSC) is also used since deconvolution of the total heat flow into reversing and non-reversing heat flows allows the transitions to be easily identified. The samples were submitted to the same experimental temperature program: after the equilibration of the sample at −5° C., the samples were heated through a modulated program from −5° C. to 210° C. at a rate of 1° C./min. […] Experiments are performed using crimped aluminium sample pans or open pans in some cases. The quantity of product analysed is typically between 2 and 13 mg.

[4] = Water sorption/desorption cycling (dynamic vapor sorption, DVS) at 25° C., with XRPD before and after; conditions: for XRPD before and after water sorption/desorption cycling: two consecutive cycles, 0% to 90% relative humidity
Experimental: Water sorption measurements are performed on a DVS-1 automated gravimetric vapor sorption analyser (Surface Measurement Systems Ltd., London, UK). The DVS-1 measures the uptake and loss of vapor gravimetrically using a Cahn D200 recording ultra-microbalance with a mass resolution of ±0.1 μg. The relative humidity around the sample is controlled by mixing saturated and dry carrier gas streams using mass flow controllers. The temperature is maintained within ±0.1° C. by enclosing the entire system in a temperature-controlled incubator. A sample size between 15 and 20 mg is used. In general, the error in % (w/w) identified in a tested sample is ±0.1% (w/w).
Two protocols are utilized to operate the DVS. In one protocol, a sample is dried at 0% relative humidity (RH) to remove any surface water present and establish a dry, baseline mass. Next, the sample is exposed to the following relative humidity profile: 0%, 10%, 20%, 30%, 40%, 50%, 60%, 70%, 80%, 90%, 80%, 70%, 60%, 50%, 40%, 30%, 20%, 10%, 0%. In some instances, this profile is repeated, yielding 4 sets of data going up and down in RH. In another protocol, the sample is first equilibrated at 40% RH, then it was exposed to the following relative humidity profile: 40%, 50%, 60%, 70%, 80%, 90%, 100%, 90%, 80%, 70%, 60%, 50% 40% 30%, 20% 10%, 0%, 10%, 20%, 30%, 40%. […] If equilibrium state is not reached, the change in relative humidity took place automatically after 360 or 600 minutes. From the complete moisture sorption and desorption profile, an isotherm is calculated using the DVS Advanced Analysis Suite v3.6. All experiments were performed at 25° C.

[5] = Prolonged exposure to fixed relative humidity or rinsing with water, XRPD before and after; conditions: for crystal form by XRPD after exposure to a relative humidity of 97.5%: month long exposure, ambient temperature
[6] = Controlled temperature (isothermal) X-ray powder diffraction: thermal stability of the crystalline form; conditions: dry nitrogen; for form conversion as the temperature is raised (isothermal XRPD): ambient to 210° C.
Experimental: X-ray powder diffraction (XRPD) is performed on various samples of the Citrate Salt using one of three instruments. XRPD measurements with Instrument 1 utilize a Siemens-Bruker D5000 Matic powder diffractometer with a Bragg-Brentano (vertical θ-2θ configuration) parafocusing geometry. X-rays are produced from a sealed cobalt anode running at 40 kV and 30 mA. Two lines are typically emitted: CoKα1 (λ=1.7890 Å) and CoKα2 (λ=1.7929 Å). An iron β-filter limits the CoKβ (λ=1.6208 Å) radiation to about 1% of the diffracted beam at the detector. The primary beam passes through a parallel plate collimator (0.2 mm Soller slits), then through a divergence slit (0.2 mm). Diffracted X-rays are detected with a Braun 50 M multichannel linear detector having a 10°-wide detection window in angle 2θ. Scans are performed from 1.5° to 50.0° in 2θ, the scan time being 10 to 40 seconds per degree in 2θ. The error in the 2θ locations are typically within ±0.10 degrees.
In Instrument 3, XRPD measurements are performed at different temperatures to elucidate the evolution of crystal structure with temperature. Tests are carried out with a Siemens-Bruker D5000 diffractometer equipped with the Bragg Brentano parafocusing (θ-θ) geometry and an Anton-Paar TTK temperature chamber. Measurements utilize dry nitrogen or nitrogen streams having a particular humidity. The instrument specifications are substantially similar to the Siemens-Bruker D5000 Matic instrument described above (Instrument 1). Temperature is allowed to rise at a rate of 0.05° C./sec. Scans are recorded under the following conditions: a 1.5 to 50.0 degree scan in angle 2θ, 10 to 20 seconds counting time per degree in 2θ. Data are acquired in isotherm mode when the requested temperature is reached.

[7] = heating rate 5° C./min, A, B, H: melting/decomposition, E: loss of water and conversion to Form H, ±3° C.
[8] = sample including Forms A and C, 5° C./min, Form C: conversion to Form A, Form A: melting/decomposition

CC(C)(O)c1ccc2c(c1)/C(=C/CCN1CC[C@](O)(c3ccc(Cl)cc3)C(C)(C)C1)c1cccnc1CO2 [Citrate Salt, citrate salt of (S)-4-(4-Chloro-phenyl)-1-{3-[7-(1-hydroxy-1-methyl-ethyl)-11H-10-oxa-1-aza-dibenzo[a,d]cyclohepten-5-ylidene]-propyl}-3,3-dimethyl-piperidin-4-ol]
Form(s) identified ([1]; Crystallization after dissolution THF, followed by a slow evaporation at ambient temperature and atmospheric pressure): A + D | Form(s) identified ([1]; Crystallization after dissolution at high temperature in THF/water): A + C | Form(s) identified ([1]; Dissolution at ambient temperature in DMSO/water): Amorphous | Form(s) identified ([1]; Dissolution in THF/water and azeotropic distillation (isolation in water)): Amorphous | Form(s) identified ([1]; Dissolution in dichloromethane/methanol, followed by a quick evaporation at ambient temperature and low pressure): Amorphous | Form(s) identified ([1]; Maturation in THF of Forms A and B at ambient temperature): A + C | Form(s) identified ([1]; Maturation in water of the amorphous form at ambient temperature): E + F + G

CC(C)(O)c1ccc2c(c1)/C(=C/CCN1CC[C@](O)(c3ccc(Cl)cc3)C(C)(C)C1)c1cccnc1CO2 [Form B, citrate salt of (S)-4-(4-Chloro-phenyl)-1-{3-[7-(1-hydroxy-1-methyl-ethyl)-11H-10-oxa-1-aza-dibenzo[a,d]cyclohepten-5-ylidene]-propyl}-3,3-dimethyl-piperidin-4-ol]
TGA weight loss from ambient temperature to about 100° C. ([2]; heating rate 5° C./min): No weight loss is detected | TGA weight loss of the transition ([2]; heating rate 5° C./min): about 27.5 % (w/w) | TGA weight loss transition, interpolated beginning temperature ([2]; heating rate 5° C./min): about 180 °C | TGA weight loss transition, temperature of maximum rate of weight loss ([2]; heating rate 5° C./min): 192 °C | DSC endothermic transition, Tmax ([3]; heating rate 1° C./min): 179 °C | DSC endothermic transition, interpolated beginning temperature ([3]; heating rate 1° C./min): 174 °C | DSC endothermic transition, Tmax [3, 7]: 189 °C | DSC endothermic transition, interpolated beginning temperature [3, 7]: 184 °C | change in moles of water per mole of anhydrous crystal over relative humidity 0% to 90% ([4]; 25° C.): about 0.4 moles of water per mole of anhydrous crystal | change in mass as the relative humidity is changed between 0% and 90% ([4]; 25° C., dry crystal basis, known to within ±0.1%): about 0.9% | XRPD before and after water sorption/desorption cycling ([4]; 25° C.): no structural change | stability when rinsed with water, XRPD before and after the rinsing [5]: stable to 100% relative humidity | crystal form by XRPD after exposure to a relative humidity of 97.5% [5]: does not change form

CC(C)(O)c1ccc2c(c1)/C(=C/CCN1CC[C@](O)(c3ccc(Cl)cc3)C(C)(C)C1)c1cccnc1CO2 [Form C, citrate salt of (S)-4-(4-Chloro-phenyl)-1-{3-[7-(1-hydroxy-1-methyl-ethyl)-11H-10-oxa-1-aza-dibenzo[a,d]cyclohepten-5-ylidene]-propyl}-3,3-dimethyl-piperidin-4-ol]
form conversion as the temperature is raised (isothermal XRPD) [6]: conversion of the Form C crystals to Form A | TGA weight loss ([2]; sample including Forms A and C): about 8.22 % (w/w) | TGA weight loss, temperature of maximum rate of weight loss ([2]; sample including Forms A and C): 162 °C | TGA weight loss, interpolated beginning temperature ([2]; sample including Forms A and C, Form C: conversion away from Form C, Form A: decomposition/melting): 157 °C | DSC endothermic transition between Form C and Form A, Tmax ([3]; heating rate 20° C./min): 171 °C | DSC endothermic transition between Form C and Form A, interpolated beginning temperature ([3]; heating rate 20° C./min): 165 °C | DSC endothermic transition, Tmax [3, 8]: 166 °C | DSC endothermic transition, interpolated beginning temperature [3, 8]: about 161 °C | XRPD before and after water sorption/desorption cycling ([4]; 25° C.): no structural modification

CC(C)(O)c1ccc2c(c1)/C(=C/CCN1CC[C@](O)(c3ccc(Cl)cc3)C(C)(C)C1)c1cccnc1CO2 [Form E, citrate salt of (S)-4-(4-Chloro-phenyl)-1-{3-[7-(1-hydroxy-1-methyl-ethyl)-11H-10-oxa-1-aza-dibenzo[a,d]cyclohepten-5-ylidene]-propyl}-3,3-dimethyl-piperidin-4-ol]
form conversion as the temperature is raised (isothermal XRPD) [6]: converts to Form B | loss of stability (lines unique to the form disappear), isothermal XRPD ([6]; sample containing Forms E, F, and G, steps of 10° C.): above 50 °C | TGA weight loss of the transition ([2]; heating rate 5° C./min): 6.14 % (w/w) | TGA weight loss transition, interpolated beginning temperature ([2]; heating rate 5° C./min): 52 °C | TGA weight loss transition, temperature of maximum rate of weight loss ([2]; heating rate 5° C./min): 64 °C | DSC endothermic transition, Tmax [3, 7]: 67 °C | DSC endothermic transition, interpolated beginning temperature [3, 7]: 45 °C | DSC endothermic transition, integrated enthalpy change ([3]; heating rate 5° C./min, transition 2411, conversion of Form E to Form H): 178.3 J/g | weight change / water uptake between 10% and 90% relative humidity ([4]; 25° C.): about 2.28 % (w/w) | weight gain / water uptake as relative humidity is increased from 0% to 10% ([4]; 25° C.): about 5.13 % (w/w) | behaviour under 10% relative humidity (observed at 0% relative humidity) ([4]; ambient temperatures): fully transforms into form H | XRPD before and after water sorption/desorption cycling ([4]; 25° C.): a structure corresponding with Form H after the cycling

CC(C)(O)c1ccc2c(c1)/C(=C/CCN1CC[C@](O)(c3ccc(Cl)cc3)C(C)(C)C1)c1cccnc1CO2 [batch F1]
stability when rinsed with water, XRPD before and after the rinsing [5]: loss of lines of Form F and diminution of lines of Form G, while the lines of Form E grow | crystal form by XRPD after exposure to a relative humidity of 0% ([5]; about one month): a mixture of Forms E and B | crystal form by XRPD after exposure to a relative humidity of 97.5% [5]: loss of lines of Form F and diminution of lines of Form G, while the lines of Form E grow
